pIC50: −log10 of the molar value. Counter-ions that a name gives are not always drawn. Like-named read-outs stand apart in the source and are kept apart here.
Experiments:
[1] = biological target: T1, JARID1B (Homo sapiens, UniProt Q9UGL1); assay: FLAG-JARID1B histone demethylase assay with AlphaScreen detection (HTS and dose response); assay type: biochemical; conditions: for Assay − Artifact Signal (percent): assay signal minus artifact signal; for inhibition at 20 µM: read-out: Inhibitory effect (percent); for Assay Signal (percent) / Validation result of HTS active: effect of the compound in the JARID1B AlphaScreen demethylase assay: validation of HTS actives; for Assay Signal (percent): effect of compound in JARID1B AlphaScreen assay; for Validation result of HTS active: effect of the compound in the JARID1B AlphaScreen demethylase assay: total signal before subtraction of artifact signal;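 for Assay Signal (percent): compound tested at 20 µM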;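 for Assay − Artifact Signal (percent): compound tested at 20 µM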;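 for all read-outs here: FLAG-tagged JARID1B at 4 nM acting on a biotinylated H3K4me3 peptide, demethylation read by AlphaScreen luminescence, with hits checked against bio-H3K4me2 without enzyme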
T1 construct: The FLAG tagged full length JARID1B enzyme was expressed in Sf21 insect cells using FLAG-JARID1B baculoviruses; FLAG (N); made in house; host or cells: Sf21 insect cells (baculovirus)

[2] = AlphaScreen counterscreen against bio-H3K4me2 peptide in the absence of enzyme (artifact signal); conditions: for Artifact Signal (percent): effect of the compound when incubated with bio-H3K4me2 peptide (counterscreen, no enzyme); for Artifact signal: effect of the compound when it is incubated with bio-H3K4me2 peptide: counterscreen, no enzyme;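 for all read-outs here: counterscreen run without enzyme against bio-H3K4me2 peptide to remove false positive hits from the JARID1 demethylase AlphaScreen screen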
[3] = high-throughput screen, compound 20 μM, standard demethylase conditions (10 μM α-KG, 50 μM Fe (II))
[4] = high-throughput screen, compound 20 μM, IDs marked *: additional hits under reaction condition with 1 mM α-KG
[5] = dose response at 15 μM (low) Fe (II), read-out: IC50 (μM) low Fe (II)
[6] = dose response at 50 μM (high) Fe (II), read-out: IC50 (μM) high Fe (II)

T1 sequence (Q9UGL1 whole entry): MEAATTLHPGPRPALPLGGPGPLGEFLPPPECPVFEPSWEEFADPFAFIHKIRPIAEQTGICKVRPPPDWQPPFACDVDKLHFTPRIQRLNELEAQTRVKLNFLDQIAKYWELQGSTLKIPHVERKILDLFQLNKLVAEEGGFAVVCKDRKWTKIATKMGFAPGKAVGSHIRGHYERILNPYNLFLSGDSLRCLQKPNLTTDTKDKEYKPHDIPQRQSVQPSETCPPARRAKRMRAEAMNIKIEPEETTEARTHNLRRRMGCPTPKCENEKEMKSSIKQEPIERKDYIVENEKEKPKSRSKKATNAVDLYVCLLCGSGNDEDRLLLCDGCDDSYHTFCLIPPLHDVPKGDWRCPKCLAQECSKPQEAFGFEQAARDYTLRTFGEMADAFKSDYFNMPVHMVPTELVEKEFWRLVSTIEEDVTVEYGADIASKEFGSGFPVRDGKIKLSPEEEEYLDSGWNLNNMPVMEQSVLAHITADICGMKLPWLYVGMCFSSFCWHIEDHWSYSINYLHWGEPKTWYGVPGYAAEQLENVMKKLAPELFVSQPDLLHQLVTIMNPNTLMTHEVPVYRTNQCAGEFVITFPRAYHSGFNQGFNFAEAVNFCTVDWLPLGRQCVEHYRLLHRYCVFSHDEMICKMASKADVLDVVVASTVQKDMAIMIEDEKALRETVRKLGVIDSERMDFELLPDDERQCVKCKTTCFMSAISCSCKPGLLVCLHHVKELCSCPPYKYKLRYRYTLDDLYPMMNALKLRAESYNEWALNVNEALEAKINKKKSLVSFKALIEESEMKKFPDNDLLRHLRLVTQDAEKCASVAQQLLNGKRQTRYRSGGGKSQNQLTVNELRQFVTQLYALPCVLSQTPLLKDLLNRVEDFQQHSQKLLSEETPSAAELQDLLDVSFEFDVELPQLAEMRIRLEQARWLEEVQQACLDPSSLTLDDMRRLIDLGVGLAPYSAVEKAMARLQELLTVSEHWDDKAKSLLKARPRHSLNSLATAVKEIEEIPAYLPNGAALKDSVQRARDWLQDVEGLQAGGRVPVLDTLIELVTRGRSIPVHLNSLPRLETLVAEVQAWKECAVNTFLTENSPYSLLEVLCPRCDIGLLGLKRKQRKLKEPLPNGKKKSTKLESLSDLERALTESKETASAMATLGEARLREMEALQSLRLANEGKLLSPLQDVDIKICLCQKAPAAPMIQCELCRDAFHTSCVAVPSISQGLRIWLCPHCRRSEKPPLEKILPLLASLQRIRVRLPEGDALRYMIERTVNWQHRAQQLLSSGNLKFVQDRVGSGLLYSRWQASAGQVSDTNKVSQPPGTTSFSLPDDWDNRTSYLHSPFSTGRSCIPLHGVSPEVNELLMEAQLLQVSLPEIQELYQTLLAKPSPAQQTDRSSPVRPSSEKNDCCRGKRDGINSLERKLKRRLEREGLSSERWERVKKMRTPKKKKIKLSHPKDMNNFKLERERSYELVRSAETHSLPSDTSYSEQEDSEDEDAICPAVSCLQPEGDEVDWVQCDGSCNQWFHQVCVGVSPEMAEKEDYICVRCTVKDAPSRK

Compound: N#CC(=CC=Cc1ccco1)C(N)=S (single isomer, unassigned) [YU144893]
- Assay − Artifact Signal (percent) [1]: 22.61%
- inhibition at 20 µM [1, 3]: 44.6%
- Assay Signal (percent) [1]: 62.72%
- Artifact Signal (percent) [2]: 40.11%

Compound: Cn1c(C(C#N)=Cc2ccncc2)nc2ccccc21 (single isomer, unassigned) [YU146842]
- Assay − Artifact Signal (percent) [1]: 104.16%
- inhibition at 20 µM [1, 3]: 90.8%
- Assay Signal (percent) [1]: 97.21%
- Artifact Signal (percent) [2]: −6.95%

Compound: Cc1c(C(=O)O)cccc1-c1ccc(C=C[N+](=O)[O-])o1 (single isomer, unassigned) [YU147801]
- Assay − Artifact Signal (percent) [1]: 14.43%
- inhibition at 20 µM [1, 3]: 56.9%
- Assay Signal (percent) [1]: 31.41%
- Artifact Signal (percent) [2]: 16.98%

Compound: C=CCOc1c(Cl)cc(C=C[N+](=O)[O-])cc1OCC (single isomer, unassigned) [YU148636]
- Assay − Artifact Signal (percent) [1]: 11.11%
- inhibition at 20 µM [1, 3]: 34.7%
- Assay Signal (percent) [1]: 10.64%
- Artifact Signal (percent) [2]: −0.47%

Compound: Cc1ccc(C(C#N)=Cc2ccc(N3CCOCC3)o2)cc1 (single isomer, unassigned) [YU149607]
- Assay − Artifact Signal (percent) [1]: 37.94%
- inhibition at 20 µM [1, 3]: 43.1%
- Assay Signal (percent) [1]: 40.44%
- Artifact Signal (percent) [2]: 2.50%

Compound: Cn1c(SCC=Cc2ccccc2)nnc1-c1cnccn1 (single isomer, unassigned) [YU151184]
- inhibition at 20 µM [1, 3]: 33.8%
- Validation result of HTS active: effect of the compound in the JARID1B AlphaScreen demethylase assay [1]: 1.02
- Artifact signal: effect of the compound when it is incubated with bio-H3K4me2 peptide [2]: −5.59

Compound: N#CC(=Cc1ccc(N2CCCCC2)o1)c1ccc([N+](=O)[O-])cc1 (single isomer, unassigned) [YU152765]
- Assay − Artifact Signal (percent) [1]: 9.56%
- inhibition at 20 µM [1, 3]: 42%
- Assay Signal (percent) [1]: 11.96%
- Artifact Signal (percent) [2]: 2.40%

Compound: COc1cc(C=C[N+](=O)[O-])ccc1OCc1cccc(C(=O)O)c1 (single isomer, unassigned) [YU153545]
- Assay − Artifact Signal (percent) [1]: 8.98%
- inhibition at 20 µM [1, 3]: 101%
- Assay Signal (percent) [1]: 100.32%
- Artifact Signal (percent) [2]: 91.35%

Compound: N#CC(=Cc1ccncc1)c1nc2cc(C(F)(F)F)ccc2s1 (single isomer, unassigned) [YU153803]
- Assay − Artifact Signal (percent) [1]: 99.03%
- inhibition at 20 µM [1, 3]: 90.8%
- Assay Signal (percent) [1]: 93.75%
- Artifact Signal (percent) [2]: −5.27%

Compound: N#CC(=Cc1ccc(O)c(O)c1)C(N)=O (single isomer, unassigned) [YU154833, TYRPHOSTIN 46, reference compound]
- Assay − Artifact Signal (percent) [1]: 46.11%
- inhibition at 20 µM [1, 3]: 76.8%
- Assay Signal (percent) [1]: 50.42%
- Artifact Signal (percent) [2]: 4.32%

Compound: N#CC(=Cc1ccc(O)c(O)c1)C(N)=S (single isomer, unassigned) [YU154834, TYRPHOSTIN 47, reference compound]
- Assay − Artifact Signal (percent) [1]: 21.75%
- inhibition at 20 µM [1, 3]: 46.5%
- Assay Signal (percent) [1]: 40.23%
- Artifact Signal (percent) [2]: 18.48%

Compound: Cn1nnnc1SCC1=C(C(=O)O)N2C(=O)[C@H](NC(=O)C(O)c3ccccc3)C2SC1 (stereo in doubt) [YU034265, CEFAMANDOLE SODIUM, reference compound]
- inhibition at 20 µM [1, 4]: 40.5%

Compound: O=C(OC[C@H]1O[C@@H](OC(=O)c2cc(O)c(O)c(OC(=O)c3cc(O)c(O)c(O)c3)c2)[C@H](OC(=O)c2cc(O)c(O)c(OC(=O)c3cc(O)c(O)c(O)c3)c2)[C@@H](OC(=O)c2cc(O)c(O)c(OC(=O)c3cc(O)c(O)c(O)c3)c2)[C@@H]1OC(=O)c1cc(O)c(O)c(OC(=O)c2cc(O)c(O)c(O)c2)c1)c1cc(O)c(O)c(OC(=O)c2cc(O)c(O)c(O)c2)c1 (stereo in doubt) [YU155507, TANNIC ACID, reference compound]
- Inhibitory effect (percent) [1, 3]: 105.46%

Compound: O=C(O)/C=C/c1ccc(O)c(O)c1 [Caffeic acid, reference compound]
- IC50 [1, 5]: 1.71 µM
- IC50 [1, 6]: 2.88 µM

Compound: Cn1c(/C(C#N)=C/c2ccncc2)nc2ccccc21 [ChemBridge 6339039]
- IC50 [1, 5]: 1.8 µM
- IC50 [1, 6]: 1.31 µM

Compound: N#C/C(=C\c1ccncc1)c1nc2cc(C(F)(F)F)ccc2s1 [ChemBridge 7812182]
- IC50 [1, 5]: 1.66 µM
- IC50 [1, 6]: 1.15 µM

Compound: O=c1c2ccccc2[se]n1-c1ccccc1 [Ebselen, ebselen, reference compound]
- pIC50 ([1]; Fe (II) concentration not stated, read-out: IC50 against JARID1B): ~5.22
- IC50 [1, 5]: 7.63 µM
- IC50 [1, 6]: 5.17 µM

Compound: O=c1ccc2cc(O)c(O)cc2o1 [Esculetin, esculetin, reference compound]
- IC50 [1, 5]: 2.57 µM
- IC50 [1, 6]: 4.6 µM

Compound: CC(C)(O)[C@@H]1[C@H]2OC(=O)[C@@H]1[C@]1(O)C[C@H]3O[C@]34C(=O)O[C@H]2[C@]14C [YU033619, PICROTIN, reference compound]
- inhibition at 20 µM [1]: 46.9%
- Validation result of HTS active: effect of the compound in the JARID1B AlphaScreen demethylase assay [1]: −12.66

Compound: CC(=O)O[C@H]1C[C@@]2(C)[C@@H](C[C@@H](O)[C@H]3[C@@]4(C)CC[C@@H](O)[C@@H](C)[C@@H]4CC[C@@]32C)/C1=C(\CCC=C(C)C)C(=O)O [YU033837, FUSIDIC ACID, reference compound]
- inhibition at 20 µM [1, 3]: 63.1%
- Validation result of HTS active: effect of the compound in the JARID1B AlphaScreen demethylase assay [1]: 0.93

Compound: Cc1ccccc1C(OCCN(C)C)c1ccccc1 (stereo not drawn) [YU033938, ORPHENADRINE CITRATE, reference compound]
- Artifact Signal (percent) [2]: 0.79%

Compound: c1ccc2c(c1)CCCC2C1=NCCN1 (stereo not drawn) [YU034020, TETRAHYDROZOLINE HYDROCHLORIDE, reference compound]
- inhibition at 20 µM [1, 4]: 99.2%
- Validation result of HTS active: effect of the compound in the JARID1B AlphaScreen demethylase assay [1]: −5.13

Compound: C[CH2][Hg][S]c1ccccc1C(=O)[O-] [YU034023, THIMEROSAL, reference compound]
- Artifact signal: effect of the compound when it is incubated with bio-H3K4me2 peptide [2]: −5.81

Compound: CC(=O)[O][Hg][c]1ccccc1 [YU034074, PHEN[…], ACETATE, reference compound]
- Artifact signal: effect of the compound when it is incubated with bio-H3K4me2 peptide [2]: −10.79

Compound: O=c1c2ccccc2[se]n1-c1ccccc1 [YU034226, EBSELEN, reference compound]
- inhibition at 20 µM [1, 4]: 56.5%
- inhibition at 20 µM [1, 3]: 41.4%

Compound: O=C1c2c(O)ccc(O)c2C(=O)c2c(NCCNCCO)ccc(NCCNCCO)c21 [YU034420, MITOXANTHRONE HYDROCHLORIDE, reference compound]
- Assay − Artifact Signal (percent) [1]: 10.55%
- inhibition at 20 µM [1, 3]: 101%
- Assay Signal (percent) [1]: 99.87%

Compound: OC1CCCCC1N1CCC(c2ccccc2)CC1 (stereo not drawn) [YU034447, VESAMICOL HYDROCHLORIDE, reference compound]
- Assay − Artifact Signal (percent) [1]: 8.85%
- inhibition at 20 µM [1]: 40.5%
- Assay Signal (percent) [1]: 8.67%

Compound: Cc1cc(/C=C/c2ccc3cc(N(C)C)ccc3[n+]2C)c(C)n1-c1ccccc1 [YU034547, PYRVINIUM PAMOATE, reference compound]
- inhibition at 20 µM [1, 3]: 64.4%
- Validation result of HTS active: effect of the compound in the JARID1B AlphaScreen demethylase assay [1]: −3.96

Compound: CC[C@H]1OC(=O)[C@H](C)[C@@H](OC2CC(C)(OC)C(O)C(C)O2)[C@H](C)[C@@H](S2(C)(=O)NC3C(N(C)C)CC(C)NC32)[C@](C)(O)C[C@@H](C)/C(=N\C)[C@H](C)[C@@H](O)[C@]1(C)O (stereo partly drawn) [YU035181]
- Artifact Signal (percent) [2]: 4.88%

Compound: Cc1cc(C)nc(N(C#N)C(=S)N(C)C)n1 [YU145655]
- inhibition at 20 µM [1, 3]: 54.7%

Compound: Cn1c(=O)n(C)c2cc(S(=O)(=O)NNc3ccccc3)ccc21 [YU152899]
- inhibition at 20 µM [1, 3]: 49.6%

Compound: O=C(O[C@@H]1Cc2c(O)cc(O)cc2O[C@@H]1c1ccc(O)c(O)c1)c1cc(O)c(O)c(O)c1 [YU155085, EPICATECHIN MONOGALLATE, reference compound]
- inhibition at 20 µM [1, 3]: 99.5%

Compound: O=C(O[C@@H]1Cc2c(O)cc(O)cc2O[C@@H]1c1cc(O)c(O)c(O)c1)c1cc(O)c(O)c(O)c1 [YU155090, EPIGALLOCATECHIN-3- MONOGALLATE, reference compound]
- Inhibitory effect (percent) [1, 3]: 98.42%

Compound: COc1cccc2c1C(=O)c1c(O)c3c(c(O)c1C2=O)C[C@@](O)(C(C)=O)C[C@@H]3O[C@H]1C[C@H](N)[C@H](O)[C@H](C)O1 [YU155188, DAUNORUBICIN, reference compound]
- inhibition at 20 µM [1, 3]: 74.7%

Compound: O=c1c(O)c(-c2ccc(O)c(O)c2)oc2c(O[C@@H]3O[C@H](CO)[C@@H](O)[C@H](O)[C@H]3O)c(O)cc(O)c12 [YU155353, GOSSYPIN, reference compound]
- inhibition at 20 µM [1, 3]: 89%

Compound: O=c1c2cc(O)c(O)cc2oc2cc(O)c([C@@H]3O[C@H](CO)[C@@H](O)[C@H](O)[C@H]3O)c(O)c12 [YU155356, MANGIFERIN, reference compound]
- inhibition at 20 µM [1, 3]: 98.8%

Compound: O=c1ccc2cc(O)c(O)cc2o1 [YU155534, ESCULETIN, reference compound]
- Artifact Signal (percent) [2]: 6.30%

Compound: Cc1noc2c1C(c1ccc(O)c(O)c1)C1=C(CCCC1=O)N2 (stereo not drawn) [YU185529]
- inhibition at 20 µM [1, 3]: 61.5%

Compound: O=C(Nc1ccc(N2Cc3ccccc3OC(c3ccccc3)C2)c(C(=O)O)c1)c1ccccc1F (stereo not drawn) [YU208215]
- inhibition at 20 µM [1, 3]: 44.6%

Compound: Cl.Oc1cc2c(cc1O)[C@H]1c3ccccc3CN[C@@H]1CC2 [YU221065, Benzo[a]phenanthridine-10,11-diol, 5,6,6a,7,8,12b-hexahydro-, trans-, reference compound]
- Assay − Artifact Signal (percent) [1]: 55.73%
- inhibition at 20 µM [1, 3]: 49.1%
- Assay Signal (percent) [1]: 59.95%

Compound: TYROTHRICIN [YU034048, reference compound]
- Inhibitory effect (percent) [1, 3]: 68.66%
